Laboratory results reported in patent publication US20240180881A1, “METHODS FOR DECREASING RESISTANCE TO CHEMOTHERAPY” (National Institute of Immunology, priority 2022, published 2024).

How the values were obtained:
His-RAD54 WT [1] = target: T1, His-RAD54 WT (Homo sapiens, UniProt Q92698); test: Octet Bio-Layer Interferometry (BLI) binding; conditions: His-RAD54 WT immobilized onto Ni-NTA-sensor, 25° C.; read-out: affinity constant (KD)
T1 construct: made in house; host or cells: E. coli BL-21 DE3
T1 sequence (Q92698 1-747): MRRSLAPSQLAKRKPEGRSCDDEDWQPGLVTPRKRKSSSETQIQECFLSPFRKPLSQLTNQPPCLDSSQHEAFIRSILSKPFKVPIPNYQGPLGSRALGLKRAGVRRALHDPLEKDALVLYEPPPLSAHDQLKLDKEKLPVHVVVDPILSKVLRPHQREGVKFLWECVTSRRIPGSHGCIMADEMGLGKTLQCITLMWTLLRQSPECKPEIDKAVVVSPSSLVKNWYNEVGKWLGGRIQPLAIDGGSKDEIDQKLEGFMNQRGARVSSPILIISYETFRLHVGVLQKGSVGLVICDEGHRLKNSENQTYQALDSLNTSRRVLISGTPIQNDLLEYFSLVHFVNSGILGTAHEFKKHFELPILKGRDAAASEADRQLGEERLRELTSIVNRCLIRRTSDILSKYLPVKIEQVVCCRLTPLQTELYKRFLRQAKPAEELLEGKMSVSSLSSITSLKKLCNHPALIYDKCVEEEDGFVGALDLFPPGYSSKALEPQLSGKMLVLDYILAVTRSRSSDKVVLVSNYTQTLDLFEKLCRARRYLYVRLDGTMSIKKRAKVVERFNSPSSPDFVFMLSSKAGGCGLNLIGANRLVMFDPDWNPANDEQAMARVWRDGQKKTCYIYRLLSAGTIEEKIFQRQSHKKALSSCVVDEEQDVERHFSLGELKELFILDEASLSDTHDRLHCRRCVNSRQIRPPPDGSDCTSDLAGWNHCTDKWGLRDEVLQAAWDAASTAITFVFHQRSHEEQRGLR
Procedure: The interactions between RAD54 and biotinylated BLM_peptide (181-212) as well as the various compounds were studied using Bio-layer interferometry (BLI) using the Octet K2 system (ForteBio Systems). Approximately, 250 μg of His-tagged RAD54 was immobilized onto a Ni-NTA chip for 600 s and the unbound protein was washed using 10 mM HEPES pH 7.5 buffer. […] Each of the reaction set was then used to check for their association with RAD54 captured on the sensor. The kinetics of the RAD54-BLM interaction was monitored for 180 s each for the association and the dissociation curves by dipping the sensors in a series of increasing concentrations of the BLM_peptide. 500 mM NaCl was used as the dissociation buffer. A control sensor with the immobilized RAD54 was used in parallel and was used to normalize the data. Washing in 350 mM EDTA regenerated the sensors for the next cycle of binding kinetics. The experiments were performed at 25° C. All the real-time data was analysed and KD values were determined using the Octet® Evaluation software using 1:1 fitting curves.

His-RAD54 WT [2] = target: T1, His-RAD54 WT; test: Tryptophan fluorescence assay; format: binding; conditions: compound, from 10 nM
Procedure: To determine how BLM peptide affects ATP binding and hydrolysis, tryptophan fluorescence assays were carried out using full-length recombinant RAD54 in presence of either BLM_peptide or SCM_peptide (FIG. 2H). Tryptophan fluorescence assays were carried out with RAD54 WT alone or RAD54 WT in presence of the indicated concentrations of either BLM_peptide (upper panel) or SCM_peptide (lower panel). The experiment was repeated three times and one representative experiment has been shown.
RAD54 fluorescence was measured in a fluorometer.
Tryptophan fluorescence measurements were performed on a Fluoromax Spectrofluorimeter (Horiba-Jobin Yvon Fluoromax 4). Recombinant His-RAD54 (500 nM) was excited at 280 nm and the emission intensity monitored at regular intervals from 295 nm to at least 450 nm.

[3] = target: T2, RAD54-BLM interaction in HEK293T cells (Homo sapiens, UniProt Q92698); test: In cellulo interaction assay, immunoprecipitation with anti-BLM antibody; format: cell-based; conditions: 100 nM compound, 72 hours
T2 construct: endogenous in cells; host or cells: HEK293T
T2 sequence (Q92698 1-747): T1 sequence (Q92698 1-747)
Procedure: (§1) The levels of bound RAD54 were determined by immunoblotting with anti-RAD54 antibody (FIG. 5B). […] (Left) Direct westerns were carried out with antibodies against BLM, RAD54, bActin. (Right) immunoprecipitation (IP) was carried out with anti-BLM antibody. Westerns were carried out with anti-BLM, anti-RAD54 antibodies. The experiment was repeated three times and one representative experiment has been shown (FIG. 11B).

HT-29 OHP(R) cells = test: Xenograft, HT-29 OHP(R); format: in vivo, NSG mice; conditions: for tumour volume, chemoresistance: CPT + compound
Procedure: Xenografts assays were carried out in NSG mice using HT-29 OHP(R) cells.
RNA (FIG. 16D) or protein (FIG. 16E) levels of the indicated MDR genes were determined by RT-qPCR or immunoblotting with the indicated antibodies.

RAD54-BLM interaction = target: T3, RAD54-BLM interaction (Homo sapiens, UniProt Q92698); test: In vitro interaction assay, bound GST-BLM WT and soluble His-RAD54 WT; format: binding; conditions: 10 μM compound
T3 construct: made in house; host or cells: E. coli BL-21 DE3
T3 sequence (Q92698 1-747): T1 sequence (Q92698 1-747)
Procedure: as §1
pcDNA3.1 Flag RAD54 was used for coupled in vitro transcription/translation of RAD54 using T7 Quick coupled Transcription/Translation System kit S^35 methionine. Interaction between bound GST-BLM (wildtype or mutants) and radiolabelled RAD54 were carried out as described previously (Gupta et al., 2014). […] 10 μM of the 3 compounds were used in the in vitro interaction assays.

[4] = test system: MDR genes (MRP2, MRP3, MRP5, MXR) in HCT116 IC60 CPTR cells; conditions: 100 nM compound alone, 72 hours
Procedure: Concentrations of CPT used: 0.140 nM, 20 nM, 50 nM, 1000 nM. Concentration of 1-OHP: 0.14 μM, 2 μM, 4 μM, 6 μM, 8 μM. Concentrations of CDDP used: 0.140 μM, 2 μM, 5 μM, 10 μM. The percentage of viable cells were determined by MTT assays (FIG. 12A-12C). The data in FIG. 12A and FIG. 12C is from three independent experiments and the data in FIG. 12B is from nine independent experiments. […] The levels of MRP2, MRP3, MRP5, MXR were quantitated from three independent experiments. […] Specifically, HCT116 IC60 CPTR cells were transfected with the HR substrate for 72 hours and the levels of HR was determined (FIG. 6A). The data is from three independent experiments. […] The number of soft agar colonies in each condition were counted. The data is from three independent experiments.

## CC(=O)Nc1nnc(S(N)(=O)=O)s1 [C3, Acetazolamide]
His-RAD54 WT [1]
  Kd: 55.8 µM
His-RAD54 WT [2]
  tryptophan fluorescence of RAD54: quenched the tryptophan florescence of RAD54 even at 10 nM concentration
[3]
  RAD54 co-immunoprecipitated with BLM: disrupted the RAD54-BLM interaction
HT-29 OHP(R) cells
  tumour volume, chemoresistance: reverses chemoresistance
RAD54-BLM interaction
  levels of RAD54 bound to GST-BLM WT: disrupted the RAD54-BLM interaction
[4]
  transcript levels of MDR genes: do not alter the transcript levels of MDR genes

## OCCN(CCO)c1nc(N2CCCCC2)c2nc(N(CCO)CCO)nc(N3CCCCC3)c2n1 [C7, Dipyridamole]
His-RAD54 WT [1]
  Kd: 5.04 µM
His-RAD54 WT [2]
  tryptophan fluorescence of RAD54: quenched the tryptophan florescence of RAD54 even at 10 nM concentration
[3]
  RAD54 co-immunoprecipitated with BLM: disrupted the RAD54-BLM interaction
HT-29 OHP(R) cells
  tumour volume, chemoresistance: reverses chemoresistance
RAD54-BLM interaction
  levels of RAD54 bound to GST-BLM WT: disrupted the RAD54-BLM interaction
[4]
  transcript levels of MDR genes: do not alter the transcript levels of MDR genes

## CN1CCN(C2=Nc3ccccc3Oc3ccc(Cl)cc32)CC1.O=C(O)CCC(=O)O [C17, Loxapine succinate]
His-RAD54 WT [1]
  Kd: 0.0803 µM
His-RAD54 WT [2]
  tryptophan fluorescence of RAD54: quenched the tryptophan florescence of RAD54 even at 10 nM concentration
HT-29 OHP(R) cells
  tumour volume, chemoresistance: reverses chemoresistance
HT-29 OHP(R) cells; without or with compound treatment
  RNA and protein levels of the MDR genes in tumours: decreased
